Assay results published in US6403082B1, “Bacteriocins, transport and vector system and method of use thereof” (priority 1996, dated 2002).
Marks after values point to notes of the source that are not given here.

Columns and labels:
Assay in all cases: Spot test of partially purified bacteriocins on strains grown on agar
Streptococcus = test system: Streptococcus
Brochothrix = test system: Brochothrix
Staphylococcus = test system: Staphylococcus
Pediococcus = test system: Pediococcus
Lactococcus = test system: Lactococcus
Lactobacillus = test system: Lactobacillus
Bacillus spores = assay type: cell-based
[1] = test system: Bacillus vegetative cells; assay type: cell-based
Leuconostoc = test system: Leuconostoc
G negative strains = assay type: cell-based
Carnobacteria = test system: Carnobacteria
Enterococcus = test system: Enterococcus
[2] = test system: Clostridia vegetative cells; assay type: cell-based, Clostridium
Clostridia spores = assay type: cell-based, Clostridium
Listeria = test system: Listeria
[3] = 8AU (10 μl/spot of 800 AU/ml), listed as Mesent Y105
[4] = 1AU (10 μl/spot of 100 AU/ml), listed as Mesent Y105

## Enterocin 900: broad spectrum bacteriocin of 71 amino acids (SEQ ID NO:30) produced by Enterococcus faecium 900 (MKKELLNKNEMSRIIGGKINWGNVGGSCVGGAVIGGALGGLGGAGGGCITGAIGSIWDQ; Brochocin-C peptide B;)
Streptococcus; 1AU (10 μl/spot of 100 AU/ml)
  Number of strains inhibited/Number of strains tested: 0/3
Streptococcus; 8AU (10 μl/spot of 800 AU/ml)
  Number of strains inhibited/Number of strains tested: 0/3
Brochothrix; 1AU (10 μl/spot of 100 AU/ml)
  Number of strains inhibited/Number of strains tested: 0/14
Brochothrix; 8AU (10 μl/spot of 800 AU/ml)
  Number of strains inhibited/Number of strains tested: 0/14
Staphylococcus; 1AU (10 μl/spot of 100 AU/ml)
  Number of strains inhibited/Number of strains tested: 1/7
Staphylococcus; 8AU (10 μl/spot of 800 AU/ml)
  Number of strains inhibited/Number of strains tested: 1/7
Pediococcus; 1AU (10 μl/spot of 100 AU/ml)
  Number of strains inhibited/Number of strains tested: 0/3
Pediococcus; 8AU (10 μl/spot of 800 AU/ml)
  Number of strains inhibited/Number of strains tested: 0/3
Lactococcus; 1AU (10 μl/spot of 100 AU/ml)
  Number of strains inhibited/Number of strains tested: 4/8
Lactococcus; 8AU (10 μl/spot of 800 AU/ml)
  Number of strains inhibited/Number of strains tested: 4/8
Lactobacillus; 1AU (10 μl/spot of 100 AU/ml)
  Number of strains inhibited/Number of strains tested: 2/17
Lactobacillus; 8AU (10 μl/spot of 800 AU/ml)
  Number of strains inhibited/Number of strains tested: 5/17
Bacillus spores; 1AU (10 μl/spot of 100 AU/ml)
  Number of strains inhibited/Number of strains tested: 0/5
Bacillus spores; 8AU (10 μl/spot of 800 AU/ml)
  Number of strains inhibited/Number of strains tested: 0/5
[1]; 1AU (10 μl/spot of 100 AU/ml)
  Number of strains inhibited/Number of strains tested: 0/5
[1]; 8AU (10 μl/spot of 800 AU/ml)
  Number of strains inhibited/Number of strains tested: 2/5
Leuconostoc; 1AU (10 μl/spot of 100 AU/ml)
  Number of strains inhibited/Number of strains tested: 1/9
Leuconostoc; 8AU (10 μl/spot of 800 AU/ml)
  Number of strains inhibited/Number of strains tested: 1/9
G negative strains; 1AU (10 μl/spot of 100 AU/ml)
  Number of strains inhibited/Number of strains tested: 0/29
G negative strains; 8AU (10 μl/spot of 800 AU/ml)
  Number of strains inhibited/Number of strains tested: 0/29
Carnobacteria; 1AU (10 μl/spot of 100 AU/ml)
  Number of strains inhibited/Number of strains tested: 1/19
Carnobacteria; 8AU (10 μl/spot of 800 AU/ml)
  Number of strains inhibited/Number of strains tested: 7/19
Enterococcus; 1AU (10 μl/spot of 100 AU/ml)
  Number of strains inhibited/Number of strains tested: 5/14
Enterococcus; 8AU (10 μl/spot of 800 AU/ml)
  Number of strains inhibited/Number of strains tested: 8/14
[2]; 1AU (10 μl/spot of 100 AU/ml)
  Number of strains inhibited/Number of strains tested: 2/8
[2]; 8AU (10 μl/spot of 800 AU/ml)
  Number of strains inhibited/Number of strains tested: 3/8
Clostridia spores; 1AU (10 μl/spot of 100 AU/ml)
  Number of strains inhibited/Number of strains tested: 0/7
Clostridia spores; 8AU (10 μl/spot of 800 AU/ml)
  Number of strains inhibited/Number of strains tested: 0/7
Listeria; 1AU (10 μl/spot of 100 AU/ml)
  Number of strains inhibited/Number of strains tested: 39/42
Listeria; 8AU (10 μl/spot of 800 AU/ml)
  Number of strains inhibited/Number of strains tested: 39/42

## Mesen Y105: mesentericin Y105, an anti-Listeria bacteriocin from Leuconostoc mesenteroides (KYYGNGVHCTKSGCSVNWGEAASAGIHRLANGGNGFW; UniProt P38577 25-61, looked up)
Streptococcus; 1AU (10 μl/spot of 100 AU/ml)
  Number of strains inhibited/Number of strains tested: 0/3
Streptococcus; 8AU (10 μl/spot of 800 AU/ml)
  Number of strains inhibited/Number of strains tested: 3/3^g
Streptococcus; [3]
  Number of strains inhibited/Number of strains tested: 3/3
Brochothrix; 1AU (10 μl/spot of 100 AU/ml)
  Number of strains inhibited/Number of strains tested: 0/14
Brochothrix; 8AU (10 μl/spot of 800 AU/ml)
  Number of strains inhibited/Number of strains tested: 0/14
Staphylococcus; 1AU (10 μl/spot of 100 AU/ml)
  Number of strains inhibited/Number of strains tested: 1/7^cf
Staphylococcus; [4]
  Number of strains inhibited/Number of strains tested: 1/7
Staphylococcus; 8AU (10 μl/spot of 800 AU/ml)
  Number of strains inhibited/Number of strains tested: 7/7^cf
Staphylococcus; [3]
  Number of strains inhibited/Number of strains tested: 7/7
Pediococcus; 1AU (10 μl/spot of 100 AU/ml)
  Number of strains inhibited/Number of strains tested: 0/3
Pediococcus; 8AU (10 μl/spot of 800 AU/ml)
  Number of strains inhibited/Number of strains tested: 0/3
Lactococcus; 1AU (10 μl/spot of 100 AU/ml)
  Number of strains inhibited/Number of strains tested: 0/8
Lactococcus; 8AU (10 μl/spot of 800 AU/ml)
  Number of strains inhibited/Number of strains tested: 1/8^n
Lactococcus; [3]
  Number of strains inhibited/Number of strains tested: 1/8
Lactobacillus; 1AU (10 μl/spot of 100 AU/ml)
  Number of strains inhibited/Number of strains tested: 1/17^m
Lactobacillus; [4]
  Number of strains inhibited/Number of strains tested: 1/17
Lactobacillus; 8AU (10 μl/spot of 800 AU/ml)
  Number of strains inhibited/Number of strains tested: 1/17^m
Lactobacillus; [3]
  Number of strains inhibited/Number of strains tested: 2/17
Bacillus spores; 1AU (10 μl/spot of 100 AU/ml)
  Number of strains inhibited/Number of strains tested: 5/5^b
Bacillus spores; [4]
  Number of strains inhibited/Number of strains tested: 5/5
Bacillus spores; 8AU (10 μl/spot of 800 AU/ml)
  Number of strains inhibited/Number of strains tested: 5/5^b
Bacillus spores; [3]
  Number of strains inhibited/Number of strains tested: 5/5
[1]; 1AU (10 μl/spot of 100 AU/ml)
  Number of strains inhibited/Number of strains tested: 3/5
[1]; 8AU (10 μl/spot of 800 AU/ml)
  Number of strains inhibited/Number of strains tested: 5/5
Leuconostoc; 1AU (10 μl/spot of 100 AU/ml)
  Number of strains inhibited/Number of strains tested: 5/9
Leuconostoc; 8AU (10 μl/spot of 800 AU/ml)
  Number of strains inhibited/Number of strains tested: 6/9^o
Leuconostoc; [3]
  Number of strains inhibited/Number of strains tested: 6/9
G negative strains; 1AU (10 μl/spot of 100 AU/ml)
  Number of strains inhibited/Number of strains tested: 0/29
G negative strains; 8AU (10 μl/spot of 800 AU/ml)
  Number of strains inhibited/Number of strains tested: 0/29
Carnobacteria; 1AU (10 μl/spot of 100 AU/ml)
  Number of strains inhibited/Number of strains tested: 17/19^j
Carnobacteria; [4]
  Number of strains inhibited/Number of strains tested: 17/19
Carnobacteria; 8AU (10 μl/spot of 800 AU/ml)
  Number of strains inhibited/Number of strains tested: 19/19
Enterococcus; 1AU (10 μl/spot of 100 AU/ml)
  Number of strains inhibited/Number of strains tested: 3/14^l
Enterococcus; [4]
  Number of strains inhibited/Number of strains tested: 3/14
Enterococcus; 8AU (10 μl/spot of 800 AU/ml)
  Number of strains inhibited/Number of strains tested: 9/14^l
Enterococcus; [3]
  Number of strains inhibited/Number of strains tested: 9/14
[2]; 1AU (10 μl/spot of 100 AU/ml)
  Number of strains inhibited/Number of strains tested: 0/8
[2]; 8AU (10 μl/spot of 800 AU/ml)
  Number of strains inhibited/Number of strains tested: 1/8^d
[2]; [3]
  Number of strains inhibited/Number of strains tested: 1/8
Clostridia spores; 1AU (10 μl/spot of 100 AU/ml)
  Number of strains inhibited/Number of strains tested: 0/7
Clostridia spores; 8AU (10 μl/spot of 800 AU/ml)
  Number of strains inhibited/Number of strains tested: 0/7
Listeria; 1AU (10 μl/spot of 100 AU/ml)
  Number of strains inhibited/Number of strains tested: 36/42^h
Listeria; [4]
  Number of strains inhibited/Number of strains tested: 36/42
Listeria; 8AU (10 μl/spot of 800 AU/ml)
  Number of strains inhibited/Number of strains tested: 42/42
